Measured values from patent US9107919B2, “Pharmaceutical compositions comprising imidazoquinolin(amines) and derivatives thereof suitable for local administration” (priority 2009, dated 2015).

What was measured:
[1] = Imiquimod solubility in glacial acetic acid and buffers (HPLC/UV); assay type: physicochemical
Description: The solubility was experimentally determined weighing 1200 mg of drug, adding 10 ml of glacial acetic acid and gently shaking the dispersion for 24 hours. This sample, after filtration (0.22 μm Millipore membrane filter) was analyzed by HPLC for the imiquimod content and its pH was measured.
Imiquimod (738 mg) was initially dissolved in glacial acetic acid (10 ml). A volume of this solution was appropriately diluted with phosphate buffer pH 7.0 (0.1 M), citrate buffer pH 6.0 (0.1 M) or acetate buffer pH 5.0 (0.1 M) to prepare systems containing 2.0% of drug. The samples, after filtration by 0.22 μm Millipore membrane filter, were spectrophotometrically and chromatographically analyzed for the imiquimod content. The pH was determined.

[2] = Solubility of imiquimod in glycerol or propylene glycol; assay type: physicochemical; details: for imiquimod concentration in solution: 120° C. 24 h, then water added
Description: Imiquimod was weighed (100 mg) and added of glycerol or propylene glycol to a volume of 10 ml. After shaking (at 120° C. for 24 hours) and cooling, 10 ml of water were added: the dispersions were filtered and the imiquimod amount in the liquid phases was determined. […] When propylene glycol was used the pH was 3.03 and the concentration of imiquimod in solution was 0.02%.

[3] = Imiquimod diffusion/release, Franz cell with cellulose acetate membrane; assay type: physicochemical; details: 0.1 M lactic acid solution, 37° C., first hour
Description: The imiquimod diffusion/release experiments have been performed with Franz cells with an effective diffusion area of 1.76 cm^2 and a receiving compartment volume of 14 ml: the donor compartment contained about 2 g of gel formulation, while the receiving one was filled with 0.1 M lactic acid solution (pH=3.5). Between the two compartments, a cellulose acetate membrane (MWCO=23000) was interposed. The experiments were carried out at 37° C. using a re-circulating bath and the fluid in the receptor chamber was stirred continuously at 300 rpm.
At prefixed time intervals, the receiving phase was completely withdrawn and substituted by fresh acid solution. The receiving solution was submitted to UV analysis for imiquimod.

[4] = Pharmacokinetics of intravesical imiquimod in pigs (plasma, urine); assay type: in vivo, pig; details: female, Dutch Landrace, other: intravesical instillation, 50 mL of imiquimod 0.5% solution
Description: Female pigs (Dutch Landrace) were used for this study. […] The pigs were divided into four groups of six animals. Experimental procedures were performed under general anesthesia. Premedication contained a mixture of 10 mg/kg ketamine and 0.5 to 1.0 mg/kg midazolam i.m. in one shot. Sedation maintenance was done by the same mixture in half the dosage every 45 minutes. The bladder was emptied without suction trauma prior to the start of treatment (via 12 French Foley catheter) and 50 mL of the study drug was instilled intravesically. […] The catheter was clamped and the instillation fluid was retained in the bladder for 60 minutes, after which the bladder was emptied. The bladder was not rinsed after emptying.
Blood samples for pharmacokinetic analysis and cytokine measurement were collected in 4 mL lithium heparin tubes with gel divider before instillation of the study drug and 15, 30, 60, 120, 240 and 480 minutes after the beginning of drug instillation and also just before cystectomy. The samples were transferred on ice to the laboratory for plasma processing within 30 minutes. […]
The post-treatment evacuated bladder content and the evacuated urine just before necropsy were collected for analysis of imiquimod concentration. […] Imiquimod concentrations in plasma and urine was determined by CHIMAN s.r.1. […]

[5] = Toxicity of intravesical imiquimod in pigs (well-being, blood, bladder histology); assay type: in vivo, pig
Description: Animal procedures were performed according to the protocol approved by the Institutional Animal Care and Use Committee (IACUC, Radboud University Nijmegen Medicai Centre, The Netherlands) and in compliance with national and European regulations. Female pigs (Dutch Landrace) were used for this study. The urogenital tract of the pig closely resembles the human urogenital system, and the shape of the penis and the preputial diverticulum prevent transurethral catheterization of a male pig. The sows were housed in special swine stainless steel battery cages and fed with universal swine food. The pigs were divided into four groups of six animals. Experimental procedures were performed under general anesthesia. […]
Body temperature was measured rectally before and 1, 8 and 24 hours and one week after starting treatment. The well being of the animals was monitored by experienced staff by a selected protocollary list of possible signs and symptoms of toxicity before the experiment, just after the instillation and just before cystectomy.
24 hours after treatment three animals per group were sacrificed and cystectomised and 7 days after treatment the remaining animals underwent the same procedure. […] Material was embedded in paraffin, sectioned, and stained with H&E. The slides were evaluated for signs of inflammation and allergic reaction in submucosa and mucosa. […]

[6] = 27% glacial acetic acid/73% acetate buffer pH 5.0 (0.1 M), system with 2.0% drug
[7] = 27% glacial acetic acid/73% citrate buffer pH 6.0 (0.1 M), system with 2.0% drug
[8] = 27% glacial acetic acid/73% phosphate buffer pH 7.0 (0.1 M), system with 2.0% drug

CC(C)Cn1cnc2c(N)nc3ccccc3c21 [imiquimod, 1-isobutyl-1H-imidazo[4,5-c]quinolin-4-amine]
solubility in pure acetic and lactic acid [1]: > 7.5 % w/v | pH ([1]; 27% glacial acetic acid/73% acetate buffer pH 5.0): 2.92 | Imiquimod solubility, HPLC [1, 6]: 1.89 % w/v | Imiquimod solubility, UV [1, 6]: 1.92 % w/v | pH ([1]; 27% glacial acetic acid/73% citrate buffer pH 6.0): 3.20 | Imiquimod solubility, HPLC [1, 7]: 0.86 % w/v | Imiquimod solubility, UV [1, 7]: 0.72 % w/v | pH ([1]; 27% glacial acetic acid/73% phosphate buffer pH 7.0): 2.92 | Imiquimod solubility, HPLC [1, 8]: 1.69 % w/v | Imiquimod solubility, UV [1, 8]: 1.55 % w/v | Imiquimod solubility, HPLC ([1]; 100% glacial acetic acid, 24 h shaking): 7.50 % w/v | pH ([2]; glycerol system): 5.42 | imiquimod concentration in solution ([2]; glycerol): 0.02% | pH ([2]; propylene glycol system): 3.03 | imiquimod concentration in solution ([2]; propylene glycol): 0.02% | flux of imiquimod through the artificial barrier [3]: 1.95e-06 g·cm^−2·s^−1 | concentration at 24 h ([4]; pig, urine, after 24 hours, all imiquimod groups, read-out: imiquimod levels in urine): < 5000 ng/mL | concentration at 8 h ([4]; plasma, after eight hours, any pig): < 2.1 ng/mL | tolerability of intravesical administration [5]: well tolerated, causes no bladder wall toxicity
